Results reported in US11446269B2, “Methods of reducing or preventing oxidation of small dense LDL or membrane polyunsaturated fatty acids” (Amarin Pharmaceuticals Ireland Limited, priority 2014, dated 2022).

Tested on: HUVECs
Assay: NO and ONOO^− release from HUVECs treated concomitantly with agent-treated oxLDL (Example 11, objective 2)
Type: cell-based, human
Details: oxLDL 11 mg/dL treated 30 min with agents 10 μM, 60 min exposure, calcium ionophore; in nM
Experimental: Human umbilical vein endothelial cells (HUVECs) were obtained from healthy, female donors and isolated into primary, proliferating cell cultures (Clonetics, San Diego, Calif.). The cells were incubated in 95% air/5% CO2 at 37° C. and passaged by an enzymatic (trypsin) procedure. The confluent cells (4 to 5×10^5 cells/35 mm dish) were plated with minimum essential medium containing 3 mM L-arginine and 0.1 mM BH4 [(6R)-5,6,7,8-tetrahydrobiopterin]. Before experimental use, the cells (from second or third passage) were rinsed twice with Tyrode-HEPES buffer with 1.8 mM CaCl2.
Concurrent measurements of NO and ONOO^− were performed with tandem electrochemical nanosensors combined into one working unit with a total diameter of 200-400 nm. Their design is based on previously developed and chemically modified carbon-fiber technology. […]
The amperometric method (with a response time of 0.1 ms) provides a quantitative signal (current) that is directly proportional to changes (from basal levels) in NO or ONOO^− concentration. […] Basal NO or ONOO^− levels were measured by differential pulse voltammetry in separate experiments.
All measurements of NO and ONOO^− were performed on intact endothelial cells. […] Cells will then be treated with calcium ionophore (to maximally stimulate the release of nitrous molecules) and monitored continuously for changes in amperometric current. […]

For `CC/C=C\C/C=C\C/C=C\C/C=C\C/C=C\C/C=C\CCC(=O)O` [DHA, docosahexaenoic acid], the “ONOO^− release” value was 240 ± 27^.
